Broadly, the IC50 is the concentration that inhibits the measured activity by half.

Results on two compounds are retold here after BindingDB's records for doi:10.1021/jm00103a005 (National Institute On Drug Abuse, 1993).

Structures can show the parent of a compound that is named as a salt.

Assay [1] has as its target Sigma non-opioid intracellular receptor 1 (Cavia porcellus) (UniProt Q60492). In words: Inhibition of specific binding of [125I]-PIPAG to sigma binding site in Guinea pig brain membranes.
Assay [2] has the same target. In words: Inhibition of specific binding of [3H]DTG to sigma binding site in Guinea pig brain membranes.
For assay [3] the target is unchanged. In words: Inhibition of specific binding of [3H]NANM of sigma binding site in Guinea pig brain membranes.
Assay [4] is described as follows: Inhibition of specific binding of [3H]DTG to sigma receptor in Guinea pig brain membranes.
The nature of assay [5]: Inhibition of specific binding of [3H]3-PPP to sigma receptor in Guinea pig brain membranes.
Assay [6] can be described thus: Inhibition of specific binding of [3H]3-PPP to sigma binding site in Guinea pig brain membranes.

Sigma non-opioid intracellular receptor 1 (Cavia porcellus), sequence (Q60492 whole entry, looked up): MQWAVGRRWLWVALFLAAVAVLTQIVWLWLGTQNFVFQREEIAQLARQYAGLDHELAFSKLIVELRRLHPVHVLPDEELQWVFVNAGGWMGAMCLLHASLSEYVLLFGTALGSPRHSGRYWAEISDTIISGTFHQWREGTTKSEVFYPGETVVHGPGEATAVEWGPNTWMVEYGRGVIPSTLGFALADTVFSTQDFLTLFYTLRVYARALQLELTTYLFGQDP

With `C=CCN1CC[C@]23c4c5ccc(O)c4O[C@H]2[C@@H](O)C=C[C@H]3[C@H]1C5` [NALORPHINE HYDROCHLORIDE], the concentration for half-maximal inhibition (IC50) in assay [1] was found to be 5000 nM; in assay [2], 4000 nM; in assay [3], 1800 nM; in assay [4], 625 nM; in assay [5], 93 nM; in assay [6], 2850 nM.

As for `CN1CCc2cccc3c2[C@H]1Cc1ccc(O)c(O)c1-3` [APOKYN], the IC50 in assay [1] is over 10000 nM; in assay [2], over 10000 nM; in assay [3], over 31000 nM.
